Values belong to the compound of their own block, whether it stands above or below them.
How the values were obtained:
MCF7 = experiment: Antiproliferative activity against human MCF7 cells assessed as inhibition of cell growth; type: functional, cell-based
HeLa [1] = experiment: Antiproliferative activity against human HeLa cells assessed as inhibition of cell growth; type: functional, cell-based
[2] = Cytotoxicity against human HEK293 cells assessed as inhibition of cell growth; type: toxicity, cell-based
A549 [3] = experiment: Antiproliferative activity against human A549 cells assessed as inhibition of cell growth; type: functional, cell-based
U-251 = experiment: Growth inhibition of human U-251 cells assessed as reduction in cell viability; type: functional
SK-OV-3 [4] = experiment: Growth inhibition of human SK-OV-3 cells assessed as reduction in cell viability; type: functional
DU-145 = experiment: Growth inhibition of human DU-145 cells assessed as reduction in cell viability; type: functional
NCI-H522 = experiment: Growth inhibition of human NCI-H522 cells assessed as reduction in cell viability; type: functional
SW-620 = experiment: Growth inhibition of human SW620 cells assessed as reduction in cell viability; type: functional
NCI/ADR-RES = experiment: Growth inhibition of human MCF7ADR cells assessed as reduction in cell viability; type: functional
A498 = experiment: Growth inhibition of human A498 cells assessed as reduction in cell viability; type: functional
M14 = experiment: Growth inhibition of human M14 cells assessed as reduction in cell viability; type: functional
PC-3 = experiment: Antiproliferative activity against human PC-3 cells incubated by 48 hrs by MTT assay; type: functional, cell-based; settings: PC-3, 48 h
HepG2 [5] = experiment: Antiproliferative activity against human HepG2 cells incubated by 48 hrs by MTT assay; type: functional, cell-based; settings: HepG2, 48 h
K562 [6] = experiment: Antiproliferative activity against human K562 cells incubated by 48 hrs by MTT assay; type: functional, cell-based; settings: K562, 48 h
A549 [7] = experiment: Antiproliferative activity against human A549 cells incubated by 48 hrs by MTT assay; type: functional, cell-based; settings: A549, 48 h
MDA-MB-231 = experiment: Antiproliferative activity against human MDA-MB-231 cells; type: functional, cell-based
HT-29 = experiment: Antiproliferative activity against human HT-29 cells; type: functional, cell-based
[8] = Cytotoxicity activity against human HDF cells; type: toxicity, cell-based; settings: HDF cells (NHDF)
PANC-1 = experiment: Antiproliferative activity against human PANC-1 cells; type: functional, cell-based
A549/CDDP = experiment: Antiproliferative activity against human A549/DDP cells assessed as inhibition of cell viability; type: functional, cell-based
A549 [9] = experiment: Antiproliferative activity against human A549 cells assessed as inhibition of cell viability; type: functional, cell-based
[10] = Antiproliferative activity against human HL7702 cells assessed as inhibition of cell viability; type: toxicity, cell-based; settings: HL7702 (L02) cells
Hep 3B2 [11] = experiment: Antiproliferative activity against human Hep3B cells measured after 48 hrs by MTT assay; type: functional, cell-based
K562 [12] = experiment: Antiproliferative activity against human K562 cells incubated for 48 hrs; type: functional, cell-based; settings: K562, 48 h
HeLa [13] = experiment: Antiproliferative activity against human HeLa cells incubated for 48 hrs; type: functional, cell-based
CT26 = experiment: Antiproliferative activity against mouse CT26 cells incubated for 48 hrs; type: functional, cell-based; settings: CT26, 48 h
MGC-803 = experiment: Antiproliferative activity against human MGC-803 cells measured after 48 hrs by MTT assay; type: functional, cell-based; settings: MGC-803, 48 h
Bel-7402 = experiment: Antiproliferative activity against human Bel-7402 cells measured after 48 hrs by MTT assay; type: functional, cell-based; settings: Bel-7402, 48 h
K562 [14] = experiment: Anticancer activity against human K562 cells measured after 48 hrs; type: functional, cell-based; settings: K562, 48 h
HeLa [15] = experiment: Antiproliferative activity against human HeLa cells assessed as cell growth inhibition; type: functional, cell-based
[16] = Antiproliferative activity against human HL7702 cells measured after 48 hrs by MTT assay; type: toxicity, cell-based; settings: HL7702 (L02) cells
HL-60 = experiment: Anticancer activity against human HL-60 cells measured after 48 hrs; type: functional, cell-based; settings: HL-60, 48 h
MOLT-4 = experiment: Anticancer activity against human MOLT-4 cells measured after 48 hrs; type: functional, cell-based; settings: MOLT-4, 48 h
A549 [17] = experiment: Antiproliferative activity against human A549 cells assessed as cell growth inhibition; type: functional, cell-based
HepG2 [18] = experiment: Antiproliferative activity against human HepG2 cells measured after 48 hrs by MTT assay; type: functional, cell-based; settings: HepG2, 48 h
T-24 [19] = experiment: Antiproliferative activity against human T24 cells assessed as inhibition of cell growth; type: functional, cell-based
[20] = Antiproliferative activity against human HL7702 cells assessed as inhibition of cell growth; type: toxicity, cell-based; settings: HL7702 (L02) cells
HepG2 [21] = experiment: Antiproliferative activity against human HepG2 cells assessed as inhibition of cell growth; type: functional, cell-based
SK-OV-3 [22] = experiment: Antiproliferative activity against human SK-OV-3 cells assessed as inhibition of cell growth; type: functional, cell-based
T-24 [23] = experiment: Antiproliferative activity against human T24 cells measured after 48 hrs by MTT assay; type: functional, cell-based; settings: T-24, 48 h
Hep 3B2 [24] = experiment: Anticancer activity against human Hep3B cells measured after 48 hrs; type: functional, cell-based

IC50 (MCF7): 10.2 µM
IC50 (HeLa [1]): 9.54 µM
IC50 (A549 [3]): 6.67 µM
Compound: O=C1C2C=CC=CC2=NC2/C(=N\Nc3nc(-c4ccc(F)cc4)cs3)c3ccccc3N12 (centres undefined)
IC50 [2]: 86.1 µM

GI50 (U-251): > 100 µM
GI50 (SK-OV-3 [4]): > 100 µM
GI50 (DU-145): > 100 µM
GI50 (NCI-H522): > 100 µM
GI50 (SW-620): > 100 µM
Compound: O=c1c2ccccc2nc2n1-c1ccccc1[C@@]2(O)OCCOc1ccccc1
GI50 (NCI/ADR-RES): > 100 µM
GI50 (A498): > 100 µM
GI50 (M14): > 100 µM

IC50 (MDA-MB-231): 81.3 µM
IC50 (HT-29): 63.8 µM
IC50 (PANC-1): 96.4 µM
Compound: Cc1nn(Br)c2c1[C@@]1(C(C#N)=CO2)c2cc(-c3cccc(Cl)c3)ccc2-n2c1nc1ccccc1c2=O
IC50 [8]: > 100 µM

IC50 (MCF7): 6.05 µM
IC50 (HeLa [1]): 7.08 µM
IC50 (A549 [3]): 8.18 µM
Compound: N#Cc1ccc(-c2csc(N/N=C3/c4ccccc4N4C(=O)C5C=CC=CC5=NC34)n2)cc1 (centres undefined)
IC50 [2]: 92.3 µM

IC50 (MCF7): 18.2 µM
IC50 (HeLa [1]): 21.7 µM
IC50 (A549 [3]): 11.1 µM
Compound: O=C1C2C=CC=CC2=NC2/C(=N\Nc3nc(-c4ccc(Cl)cc4)cs3)c3ccccc3N12 (centres undefined)
IC50 [2]: 80.9 µM

IC50 (MDA-MB-231): 52.6 µM
IC50 (HT-29): 98.8 µM
IC50 (PANC-1): > 100 µM
Compound: Cc1n[nH]c2c1[C@@]1(C(C#N)=CO2)c2cc(-c3cccc(Cl)c3)ccc2-n2c1nc1ccccc1c2=O
IC50 [8]: > 100 µM

IC50 (Hep 3B2 [24]): 9 µM
Compound: O=C1c2ccccc2-n2c1nc1ccc(Br)cc1c2=O

The remaining lines, values behind:

Compound: O=C1c2ccccc2-n2c1nc1cccc(F)c1c2=O
IC50 (PC-3): 12.4 µM
IC50 (HepG2 [5]): 6.26 µM
IC50 (K562 [6]): 6.86 µM
IC50 (A549 [7]): 5.45 µM

Compound: O=C(CCCCN(Cc1ccccn1)Cc1ccccn1)Nc1ccc2c(c1)C(=O)c1nc3ccccc3c(=O)n1-2
IC50 (A549/CDDP): 52.4 µM
IC50 (A549 [9]): 63.7 µM
IC50 [10]: > 100 µM

Compound: O=C1c2cc(C(F)(F)F)ccc2-n2c1nc1ccccc1c2=O
IC50 (Hep 3B2 [11]): 3.4 µM

Compound: O=C1c2cc(F)c(F)cc2-n2c1nc1ccccc1c2=O
IC50 (PC-3): 10.4 µM
IC50 (HepG2 [5]): 9.84 µM
IC50 (K562 [6]): 3.31 µM
IC50 (A549 [7]): 2.15 µM

Compound: CCCC[C@]1(O)c2ccccc2-n2c1nc1ccccc1c2=O
GI50 (U-251): > 100 µM
GI50 (SK-OV-3 [4]): > 100 µM
GI50 (DU-145): > 100 µM
GI50 (NCI-H522): > 100 µM
GI50 (SW-620): > 100 µM
GI50 (NCI/ADR-RES): > 100 µM
GI50 (A498): > 100 µM
GI50 (M14): > 100 µM

Compound: Cc1ccc2c(c1)[C@@]1(N[C@H](C(=O)NCC(=O)O)[C@]3(c4ccccc4)[C@@H](c4ccccc4)[C@]13c1ccccc1)c1nc3ccccc3c(=O)n1-2
IC50 (K562 [12]): 10.2 µM
IC50 (HeLa [13]): > 50 µM
IC50 (CT26): > 50 µM

Compound: O=C1c2cccc(F)c2-n2c1nc1ccccc1c2=O
IC50 (PC-3): 7.05 µM
IC50 (HepG2 [5]): 5.89 µM
IC50 (K562 [6]): 3.69 µM
IC50 (A549 [7]): 6.45 µM

Compound: CN(C)c1ccc2c(c1)C(=O)c1nc3ccccc3c(=O)n1-2
IC50 (Hep 3B2 [11]): 9 µM

Compound: O=C(O)CNC(=O)[C@H]1N[C@@]2(c3ccccc3-n3c2nc2ccccc2c3=O)[C@@]2(c3ccccc3)[C@H](c3ccccc3)[C@@]12c1ccccc1
IC50 (K562 [12]): > 50 µM
IC50 (HeLa [13]): 33 µM
IC50 (CT26): 10 µM

Compound: Nc1ccc2c(c1)C(=O)c1nc3ccccc3c(=O)n1-2
GI50 (U-251): 4.5 µM
GI50 (SK-OV-3 [4]): 25 µM
GI50 (DU-145): 8 µM
GI50 (NCI-H522): 48 µM
GI50 (SW-620): 25 µM
GI50 (NCI/ADR-RES): 1 µM
IC50 (Hep 3B2 [11]): 5.8 µM
GI50 (A498): 2 µM
GI50 (M14): 15 µM

Compound: O=C1c2cc(Br)ccc2-n2c1nc1ccccc1c2=O
GI50 (U-251): 0.7 µM
IC50 (MGC-803): 59.1 µM
GI50 (DU-145): 2 µM
GI50 (NCI-H522): 5 µM
IC50 (Bel-7402): 27.2 µM
IC50 (K562 [14]): 5 µM
GI50 (SW-620): 4.8 µM
IC50 (HeLa [15]): > 150 µM
IC50 at 48 h [16]: 50.1 µM
IC50 (HL-60): 2 µM
IC50 (MOLT-4): 8 µM
GI50 (NCI/ADR-RES): 5 µM
IC50 (A549 [17]): 89.6 µM
IC50 (Hep 3B2 [11]): 2 µM
IC50 (HepG2 [18]): 99.6 µM
IC50 (T-24 [19]): 94.1 µM
GI50 (M14): 5 µM
IC50 [20]: 50.1 µM
IC50 (HepG2 [21]): 89.6 µM
IC50 (SK-OV-3 [22]): 89.6 µM
IC50 (T-24 [23]): 15.1 µM

Compound: COc1cc(/C=C/C(=O)CC(=O)/C=C/c2ccc(O)c(OC)c2)ccc1O [CURCUMIN]
IC50 (A549/CDDP): 67.2 µM
IC50 (A549 [9]): 35.8 µM
IC50 [10]: > 100 µM

Compound: COc1cccc2c1C(=O)c1c(O)c3c(c(O)c1C2=O)C[C@@](O)(C(=O)CO)C[C@@H]3O[C@H]1C[C@H](N)[C@H](O)[C@H](C)O1 [DOXORUBICIN]
IC50 (Hep 3B2 [24]): 0.26 µM
